We go through four compounds from publication PMC6123788, “Down-regulation of cathepsin S and matrix metalloproteinase-9 via Src, a non-receptor tyrosine kinase, suppresses triple-negative breast cancer growth and metastasis” (Experimental & Molecular Medicine, 2018).

Holding throughout (assay type): biochemical
Experiment [1] concerns the target T1, Src (Homo sapiens, UniProt P12931).
T1 construct: recombinant catalytic domain of c-Src
The experiment is described as follows: CycLex c-Src kinase assay (IC90).

In experiment [2] the target is T1, Src. The experiment can be described thus: CycLex c-Src kinase assay (IC90); supported by DARTS in MDA-MB-231 lysate.
The target in experiment [3] is T2, CTSS (Homo sapiens, UniProt P25774). The experiment can be described thus: fluorometric CTSS screening kit (BioVision K149), AFC substrate.
For experiment [4], the target named is T2, CTSS. The description is as above. The source holds these as a separate data set.
The target in experiment [5] is T2, CTSS. The experiment is described as follows: fluorometric CTSS screening kit (BioVision K149), positive control.

T2 sequence (P25774 115-331): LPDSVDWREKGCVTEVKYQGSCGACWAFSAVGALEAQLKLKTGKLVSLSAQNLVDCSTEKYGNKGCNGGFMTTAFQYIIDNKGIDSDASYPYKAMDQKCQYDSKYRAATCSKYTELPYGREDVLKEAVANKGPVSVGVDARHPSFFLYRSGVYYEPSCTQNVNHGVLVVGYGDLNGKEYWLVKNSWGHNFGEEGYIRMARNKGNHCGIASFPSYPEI
T1 sequence (P12931 254-536 limits assumed): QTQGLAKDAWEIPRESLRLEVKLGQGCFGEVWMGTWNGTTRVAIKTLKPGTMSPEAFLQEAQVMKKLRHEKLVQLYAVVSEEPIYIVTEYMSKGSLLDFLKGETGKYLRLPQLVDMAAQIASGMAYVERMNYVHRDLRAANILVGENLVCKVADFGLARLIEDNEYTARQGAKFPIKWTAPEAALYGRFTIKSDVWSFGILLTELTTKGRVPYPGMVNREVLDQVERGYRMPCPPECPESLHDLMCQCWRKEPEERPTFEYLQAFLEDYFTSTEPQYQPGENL

By IC90 is commonly meant the concentration at which the effect reaches the 90% level. A low value points to greater potency. In turn, `COc1ccc(Cl)c(Nc2ncnc3cc(OCC4CCN(C)CC4)c(OC)cc23)c1` [AZM-475271] gave an IC90 on Src [1] of 27.3 µM.

What is called IC50 is the concentration that gives 50% inhibition. Low values mean greater potency, high ones weaker potency. `Cc1nc2c(c(C)c1O)CC(=O)N2` [BJ-2302] returned an IC90 against Src [2] of 3.2 µM. At CTSS [3], this compound yielded an IC50 of 5.1 µM.

Regarding `Cc1nc2[nH]c(=O)[nH]c2c(C)c1O` [BJ-2304], the “fluorometric CTSS screening kit (BioVision K149), AFC substrate” value on CTSS [4] is “BJ-2302 exhibited the strongest suppression of CTSS activity (Fig. 3b), followed by BJ-2304”.

Turning to `CC(C)C[C@H](NC(=O)[C@H](Cc1ccccc1)NC(=O)OCc1ccccc1)C(=O)C=O` [Z-FL-COCHO], on CTSS [5], it took 0.00019 µM to reach half-maximal inhibition (IC50).
